Earlier results as cited in patent US9789102B2, “H3 receptor antagonist for use in the treatment of alzheimer's disease” (SANOFI, priority 2012, dated 2017).

Test system: protein tau hyperphosphorylation
Details: 2-week treatment; TAPP transgenic mice; histopathological studies; cited from earlier work

Structure (SMILES): C[C@@H]1CCCN1CCc1cc2cc(-c3ccc(C#N)cc3)ccc2o1 [ABT-239]
- protein tau hyperphosphorylation in the spinal cord and hippocampus: effect
